One data set relates to P-gp KO A549/DOX cells. Briefly: intracellular accumulation of doxorubicin in P-gp KO A549/DOX cells. Conditions: 24 h with 5 μM doxorubicin, compound at 1 and 3 μM. The format is cell-based, human. How it is done: (§1) A 50 μL aliquot was sonicated and used for the measurement of the protein content. […] Fluorescence was converted in nmol/mg cell proteins using a calibration curve previously set.

A further data set deals with hCA I (Homo sapiens, UniProt P00915). In words: stopped-flow CO2 hydrase assay, hCA I. Conditions: read-out: Ki hCA I; stopped-flow technique, mean from three different assays.
Another data set has as its system HT29/DOX cells. Briefly: intracellular accumulation of doxorubicin in HT29/DOX cells. Format: cell-based, human. The settings on record: 24 h with 5 μM doxorubicin, compound at 1 and 3 μM, dose-dependent. How it is done: as §1
Another data set addresses hCA IX (Homo sapiens, UniProt Q16790). In words: stopped-flow CO2 hydrase assay, hCA IX. The settings on record: read-out: Ki hCA IX; stopped-flow technique, mean from three different assays.
The next data set addresses hCA II (Homo sapiens, UniProt P00918). Briefly: stopped-flow CO2 hydrase assay, hCA II. The settings on record: read-out: Ki hCA II; stopped-flow technique, mean from three different assays.
The next data set deals with T1, P-gp (Homo sapiens, UniProt P08183).
T1 construct: expressed in transfected cells; host or cells: MDCK-MDR1 (Madin-Darby Canine Kidney, transfected; gift from Prof; P. Borst, NKI-AVL)
Briefly: calcein-AM transport inhibition in MDCK-MDR1 cells. The format is cell-based. Conditions: mean ± SEM. The method, then:
(§2) The inhibiting activity of the two compounds on P-gp and MRP1 was evaluated by measuring the transport inhibition of the profluorescent probe calcein-AM (P-gp and MRP1 substrate) in MDCK-MDR1 and MDCK-MRP1 cells (P-gp- and MRP1-overexpressing cells, respectively). The activity on BCRP was instead evaluated using the fluorescent probe Hoechst 33342 (BCRP substrate) in MDCK-BCRP cells (BCRP-overexpressing cells).[43]
(§3) MDCK-MDR1, MDCK-MRP1, and MDCK-BCRP cells are a gift from Prof. P. Borst, NKI-AVL Institute, Amsterdam, The Netherlands. Cells were grown in Dulbecco’s modified Eagle’s medium (DMEM) high glucose supplemented with 10% fetal bovine serum, 2 mM glutamine, 100 U/mL of penicillin, and 100 μg/mL of streptomycin in a humidified incubator at 37 °C with a 5% CO2 atmosphere. Cell culture reagents were purchased from Celbio s.r.l. (Milano, Italy). CulturePlate 96/wells plates were purchased from PerkinElmer Life Science (Waltham, MA) and Falcon (BD Biosciences, Bedford, MA). Calcein-AM and Hoechst 33342 (bisbenzimide H 33342 trihydrochloride) were obtained from Sigma-Aldrich (Milan, Italy). The other reagents were purchased from Sigma Merck Millipore.

The next data set deals with P-gp KO HT29/DOX cells. In words: intracellular accumulation of doxorubicin in P-gp KO HT29/DOX cells. Format: cell-based, human. Conditions: 24 h with 5 μM doxorubicin, compound at 1 and 3 μM. The method, then: as §1
The target of the next data set is T2, MRP1 (Homo sapiens, UniProt P33527).
T2 construct: expressed in transfected cells; host or cells: MDCK-MRP1 (Madin-Darby Canine Kidney, transfected; gift from Prof; P. Borst, NKI-AVL)
In words: calcein-AM transport inhibition in MDCK-MRP1 cells. Format: cell-based. The settings on record: NA, not active. How it is done:
as §2, §3

Another data set deals with T3, BCRP (Homo sapiens, UniProt Q9UNQ0).
T3 construct: expressed in transfected cells; host or cells: MDCK-BCRP (Madin-Darby Canine Kidney, transfected; gift from Prof; P. Borst, NKI-AVL)
T3 sequence (Q9UNQ0 1-655): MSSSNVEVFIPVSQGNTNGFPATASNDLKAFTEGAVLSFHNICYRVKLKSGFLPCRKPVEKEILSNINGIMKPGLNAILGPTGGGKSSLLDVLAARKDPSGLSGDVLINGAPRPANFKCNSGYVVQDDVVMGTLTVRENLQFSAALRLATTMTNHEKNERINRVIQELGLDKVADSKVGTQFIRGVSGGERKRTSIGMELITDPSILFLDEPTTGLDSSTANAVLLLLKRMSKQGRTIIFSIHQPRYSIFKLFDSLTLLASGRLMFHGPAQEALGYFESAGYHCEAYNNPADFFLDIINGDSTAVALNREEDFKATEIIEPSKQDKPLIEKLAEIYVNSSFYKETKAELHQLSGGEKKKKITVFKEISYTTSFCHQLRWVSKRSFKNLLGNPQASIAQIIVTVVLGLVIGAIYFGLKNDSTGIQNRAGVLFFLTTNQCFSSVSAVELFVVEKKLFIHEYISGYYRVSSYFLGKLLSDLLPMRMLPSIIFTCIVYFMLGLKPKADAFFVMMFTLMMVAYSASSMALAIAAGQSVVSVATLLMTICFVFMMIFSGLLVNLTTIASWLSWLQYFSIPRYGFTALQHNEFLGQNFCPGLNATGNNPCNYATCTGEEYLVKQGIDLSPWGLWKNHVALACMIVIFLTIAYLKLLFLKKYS
In words: Hoechst 33342 transport inhibition in MDCK-BCRP cells. Format: cell-based. The settings on record: NA, not active. The method, then: as §2, §3

For the next data set, the system named is A549/DOX cells. Briefly: intracellular accumulation of doxorubicin in A549/DOX cells. The format is cell-based, human. Conditions: 24 h with 5 μM doxorubicin, compound at 1 and 3 μM, dose-dependent. How it is done: as §1
A short description of data set [1]: stability in human plasma, LC-MS/MS. The format is in vitro ADME. Conditions: reference compound, read-out: half-life (t1/2). The method, then:
The chemical stability of all of these diester derivatives was evaluated in phosphate-buffered solution (PBS) and human plasma samples. The stability analyses were performed by liquid chromatography coupled with a triple quadrupole mass spectrometry system (LC-MS/MS), operating in multiple reaction monitoring (MRM) mode. The LC-MS/MS instrument and parameters used are reported in the Supporting Information.
In these assays, we monitored the variation of our diester molecules’ concentration at four different incubation times both in PBS and in human plasma samples to evaluate their susceptibility toward spontaneous or enzymatic hydrolysis, respectively. By plotting any variation of analyte concentration vs the incubation time, the corresponding degradation profiles in both the tested matrices were obtained. […] Therefore, by plotting the natural logarithm of the quantitative data versus the incubation time, a linear function can be used, and its slope represents the degradation rate constant (k). Accordingly, with the linear function, the half-life (t1/2) of each tested compound can be calculated as follows [drawing 1] […]
Each set of samples was incubated in triplicate at four different times, 0, 30, 60, and 120 min at 37 °C. […] The obtained sample solutions were analyzed by LC-MS/MS methods described in the Supporting Information.

Usually Ki stands for a dissociation constant, usually derived from enzyme kinetics or from competition with a known ligand. One may read the EC50 as the concentration giving half of the maximal effect. A word on the melting point: it is the temperature of the solid-liquid transition.

Where a name gives a salt, the structure may show the parent alone.

T2 sequence (P33527 whole entry): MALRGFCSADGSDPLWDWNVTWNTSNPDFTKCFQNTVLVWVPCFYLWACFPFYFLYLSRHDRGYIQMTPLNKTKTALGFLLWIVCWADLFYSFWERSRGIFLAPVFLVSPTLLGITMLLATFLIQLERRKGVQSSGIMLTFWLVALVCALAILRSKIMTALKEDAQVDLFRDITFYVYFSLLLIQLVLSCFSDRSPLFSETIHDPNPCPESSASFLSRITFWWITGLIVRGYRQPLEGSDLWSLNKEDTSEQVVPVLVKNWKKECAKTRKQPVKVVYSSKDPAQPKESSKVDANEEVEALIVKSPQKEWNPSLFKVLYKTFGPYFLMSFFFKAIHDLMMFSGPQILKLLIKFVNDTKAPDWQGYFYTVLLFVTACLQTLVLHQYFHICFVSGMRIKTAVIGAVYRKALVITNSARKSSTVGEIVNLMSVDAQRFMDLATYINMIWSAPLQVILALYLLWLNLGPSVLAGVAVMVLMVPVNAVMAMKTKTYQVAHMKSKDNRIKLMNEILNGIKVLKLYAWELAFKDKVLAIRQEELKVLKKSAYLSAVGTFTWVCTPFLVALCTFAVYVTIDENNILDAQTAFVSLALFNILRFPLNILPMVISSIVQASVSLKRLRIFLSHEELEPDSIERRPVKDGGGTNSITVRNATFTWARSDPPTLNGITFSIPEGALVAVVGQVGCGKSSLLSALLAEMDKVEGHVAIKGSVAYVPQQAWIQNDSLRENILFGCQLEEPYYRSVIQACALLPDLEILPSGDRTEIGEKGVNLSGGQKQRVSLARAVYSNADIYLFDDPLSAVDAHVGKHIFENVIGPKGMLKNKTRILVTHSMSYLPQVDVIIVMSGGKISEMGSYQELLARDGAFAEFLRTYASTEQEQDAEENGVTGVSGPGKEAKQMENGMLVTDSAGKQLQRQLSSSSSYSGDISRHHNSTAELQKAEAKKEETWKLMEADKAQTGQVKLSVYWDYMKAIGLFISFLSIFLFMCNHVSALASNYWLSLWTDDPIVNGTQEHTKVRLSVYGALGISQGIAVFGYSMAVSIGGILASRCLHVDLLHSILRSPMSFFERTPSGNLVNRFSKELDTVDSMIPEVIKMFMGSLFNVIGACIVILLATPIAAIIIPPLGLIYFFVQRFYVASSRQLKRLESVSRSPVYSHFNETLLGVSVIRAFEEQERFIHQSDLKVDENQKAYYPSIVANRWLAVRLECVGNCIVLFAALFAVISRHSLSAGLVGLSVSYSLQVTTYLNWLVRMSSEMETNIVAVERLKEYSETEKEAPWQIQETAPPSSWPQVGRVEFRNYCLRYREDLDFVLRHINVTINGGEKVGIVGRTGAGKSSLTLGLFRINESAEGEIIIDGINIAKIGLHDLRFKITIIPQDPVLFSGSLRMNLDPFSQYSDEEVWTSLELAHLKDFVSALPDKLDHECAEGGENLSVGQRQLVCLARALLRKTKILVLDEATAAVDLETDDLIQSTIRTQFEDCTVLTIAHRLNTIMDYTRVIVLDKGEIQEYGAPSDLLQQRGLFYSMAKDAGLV
Sequence of hCA I (P00915 whole entry): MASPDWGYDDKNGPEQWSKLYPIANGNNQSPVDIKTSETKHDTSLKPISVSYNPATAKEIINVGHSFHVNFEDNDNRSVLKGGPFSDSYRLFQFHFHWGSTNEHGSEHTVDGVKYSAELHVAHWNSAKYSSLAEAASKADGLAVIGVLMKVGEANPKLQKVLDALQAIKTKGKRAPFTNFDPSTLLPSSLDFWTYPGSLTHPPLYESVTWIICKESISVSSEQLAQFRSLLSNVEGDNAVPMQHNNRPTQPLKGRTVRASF
T1 sequence (P08183 whole entry): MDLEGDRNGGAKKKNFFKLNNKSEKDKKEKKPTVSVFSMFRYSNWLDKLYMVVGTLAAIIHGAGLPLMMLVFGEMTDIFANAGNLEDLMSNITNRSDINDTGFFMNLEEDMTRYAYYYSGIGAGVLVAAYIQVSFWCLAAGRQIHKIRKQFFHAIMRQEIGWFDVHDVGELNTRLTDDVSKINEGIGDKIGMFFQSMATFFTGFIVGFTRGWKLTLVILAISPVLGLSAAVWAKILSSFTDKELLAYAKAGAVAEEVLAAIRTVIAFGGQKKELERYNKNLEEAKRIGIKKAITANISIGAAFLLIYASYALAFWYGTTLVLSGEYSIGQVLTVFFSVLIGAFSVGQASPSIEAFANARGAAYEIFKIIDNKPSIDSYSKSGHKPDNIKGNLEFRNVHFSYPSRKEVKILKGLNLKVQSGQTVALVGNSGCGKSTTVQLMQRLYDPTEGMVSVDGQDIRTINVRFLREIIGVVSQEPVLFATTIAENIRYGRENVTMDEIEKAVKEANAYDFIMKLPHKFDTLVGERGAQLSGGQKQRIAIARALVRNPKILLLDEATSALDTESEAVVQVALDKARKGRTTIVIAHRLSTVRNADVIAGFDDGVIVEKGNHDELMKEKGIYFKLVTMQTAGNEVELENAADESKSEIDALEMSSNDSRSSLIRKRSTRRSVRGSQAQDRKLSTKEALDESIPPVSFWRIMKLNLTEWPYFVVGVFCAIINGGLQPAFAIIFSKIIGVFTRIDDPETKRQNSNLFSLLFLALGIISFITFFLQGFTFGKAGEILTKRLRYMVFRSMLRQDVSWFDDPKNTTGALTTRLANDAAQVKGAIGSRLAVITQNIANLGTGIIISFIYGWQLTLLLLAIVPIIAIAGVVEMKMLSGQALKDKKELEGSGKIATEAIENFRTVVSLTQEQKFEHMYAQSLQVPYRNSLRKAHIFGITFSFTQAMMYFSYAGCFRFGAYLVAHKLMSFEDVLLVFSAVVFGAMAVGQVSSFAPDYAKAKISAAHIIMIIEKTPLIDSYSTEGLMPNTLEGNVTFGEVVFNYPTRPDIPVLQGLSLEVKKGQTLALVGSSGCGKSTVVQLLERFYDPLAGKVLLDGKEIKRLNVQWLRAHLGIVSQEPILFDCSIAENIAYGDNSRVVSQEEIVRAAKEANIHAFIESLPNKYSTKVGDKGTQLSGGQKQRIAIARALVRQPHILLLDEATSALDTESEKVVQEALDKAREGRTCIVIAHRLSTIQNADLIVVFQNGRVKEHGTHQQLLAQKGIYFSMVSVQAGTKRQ
Source text for hCA II: (§4) An SX.18MV-R Applied Photophysics (Oxford, U.K.) stopped-flow instrument has been used to assay the catalytic/inhibition of various CA isozymes.[38] […] The inhibition constants were obtained by nonlinear least-squares methods using the Cheng–Prusoff equation, as reported earlier,[32] and represent the mean from at least three different determinations.
Source text for hCA IX: as §4

For the compound `COc1cc(C(=O)OCCCCCCN(CCCOC(=O)c2cc(OC)c(OC)c(OC)c2)CCCOc2ccc3ccc(=O)oc3c2)cc(OC)c1OC` [Compound 14, 6-((3-((2-Oxo-2H-chromen-7-yl)oxy)propyl)(3-((3,4,5-trimethoxybenzoyl)oxy)propyl)amino)hexyl 3,4,5-Trimethoxybenzoate], the “intracellular retention of doxorubicin” value is “did not significantly increase” in the data set with P-gp KO A549/DOX cells, “increased” in the data set with HT29/DOX cells, “did not significantly increase” in the data set on P-gp KO HT29/DOX cells and “increased” in the data set on A549/DOX cells. For the same compound, the Ki on hCA I was greater than 10 µM; at hCA IX, 82.7 nM; on hCA II it was greater than 10 µM. The EC50 on P-gp was 180 ± 30 nM. Moreover, the “EC50 MRP1” value at MRP1 is “completely inactive”. Moreover, the “EC50 BCRP” value on BCRP is “completely inactive”.

`CCOC(=O)C(C)c1cccc(C(=O)c2ccccc2)c1` (centres unmarked) [KEE, ketoprofen ethyl ester]: the half-life at 1 μM in data set [1] was no more than 120 min.

`COc1cc(C(=O)OCCCCCCN(CCCOC(=O)c2cc(OC)c(OC)c(OC)c2)CCCOc2ccc3ccc(=O)oc3c2)cc(OC)c1OC` (as salt: hydrochloride) [Compound 14, 6-((3-((2-Oxo-2H-chromen-7-yl)oxy)propyl)(3-((3,4,5-trimethoxybenzoyl)oxy)propyl)amino)hexyl 3,4,5-Trimethoxybenzoate] displayed a melting point of 83 to 85 °C.

As for `COc1cc(/C=C/C(=O)OCCCN(CCCCCCCOC(=O)c2c3ccccc3cc3ccccc23)CCCOc2ccc3ccc(=O)oc3c2)cc(OC)c1OC` (as salt: hydrochloride) [Compound 25, (E)-7-((3-((2-Oxo-2H-chromen-7-yl)oxy)propyl)(3-((3-(3,4,5-trimethoxyphenyl)acryloyl)oxy)propyl)amino)heptyl Anthracene-9-carboxylate], the melting point fell in the range of 107 to 110 °C.

Regarding `O=C(OCCCCCCCN(CCCOC(=O)c1c2ccccc2cc2ccccc12)CCCOc1ccc2ccc(=O)oc2c1)c1c2ccccc2cc2ccccc12` (as salt: hydrochloride) [Compound 27, 3-((7-((Anthracene-9-carbonyl)oxy)heptyl)(3-((2-oxo-2H-chromen-7-yl)oxy)propyl)amino)propyl Anthracene-9-carboxylate], the melting point lay in the range of 117 to 119 °C.

`COc1cc(C(=O)OCCCN(CCCCCOC(=O)c2c3ccccc3cc3ccccc23)CCCOc2ccc3ccc(=O)oc3c2)cc(OC)c1OC` (as salt: hydrochloride) [Compound 8, 5-((3-((2-Oxo-2H-chromen-7-yl)oxy)propyl)(3-((3,4,5-trimethoxybenzoyl)oxy)propyl)amino)pentyl Anthracene-9-carboxylate]: the melting point lay within 120 to 123 °C.

Turning to `O=C(OCCCCCCN(CCCOC(=O)c1c2ccccc2cc2ccccc12)CCCOc1ccc2ccc(=O)oc2c1)c1c2ccccc2cc2ccccc12` (as salt: hydrochloride) [Compound 18, 3-((6-((Anthracene-9-carbonyl)oxy)hexyl)(3-((2-oxo-2H-chromen-7-yl)oxy)propyl)amino)propyl Anthracene-9-carboxylate], the melting point is 136 to 139 °C.

With `COc1cc(C(=O)OCCCCCN(CCCOC(=O)c2cc(OC)c(OC)c(OC)c2)CCCOc2ccc3ccc(=O)oc3c2)cc(OC)c1OC` [Compound 5, 5-((3-((2-Oxo-2H-chromen-7-yl)oxy)propyl)(3-((3,4,5-trimethoxybenzoyl)oxy)propyl)amino)pentyl 3,4,5-Trimethoxybenzoate], the “intracellular retention of doxorubicin” value with P-gp KO A549/DOX cells is “did not significantly increase”; with HT29/DOX cells it was “increased”; with P-gp KO HT29/DOX cells, “did not significantly increase”; with A549/DOX cells, “increased”. In addition, the Ki is greater than 10 µM on hCA I, 40.7 nM at hCA IX and greater than 10 µM at hCA II. Also, the EC50 on P-gp was 150 ± 20 nM. Moreover, the “EC50 MRP1” value at MRP1 is “completely inactive”. For the same compound, the “EC50 BCRP” value on BCRP is “completely inactive”.

As for `COc1cc(C(=O)OCCCN(CCCCCCCOC(=O)c2c3ccccc3cc3ccccc23)CCCOc2ccc3ccc(=O)oc3c2)cc(OC)c1OC` (as salt: hydrochloride) [Compound 26, 7-((3-((2-Oxo-2H-chromen-7-yl)oxy)propyl)(3-((3,4,5-trimethoxybenzoyl)oxy)propyl)amino)heptyl Anthracene-9-carboxylate], the melting point is 97 to 99 °C.

On to `COc1cc(/C=C/C(=O)OCCCN(CCCCCCOC(=O)c2c3ccccc3cc3ccccc23)CCCOc2ccc3ccc(=O)oc3c2)cc(OC)c1OC` (as salt: hydrochloride) [Compound 16, (E)-6-((3-((2-Oxo-2H-chromen-7-yl)oxy)propyl)(3-((3-(3,4,5-trimethoxyphenyl)acryloyl)oxy)propyl)amino)hexyl Anthracene-9-carboxylate], for which the melting point lay in the range of 92 to 95 °C.

The compound `COc1cc(C(=O)OCCCCCCCN(CCCOC(=O)c2c3ccccc3cc3ccccc23)CCCOc2ccc3ccc(=O)oc3c2)cc(OC)c1OC` (as salt: hydrochloride) [Compound 24, 3-((3-((2-Oxo-2H-chromen-7-yl)oxy)propyl)(7-((3,4,5-trimethoxybenzoyl)oxy)heptyl)amino)propyl Anthracene-9-carboxylate] displayed a melting point of 75 to 77 °C.

The record behind these values is publication PMC9661477, “New Dual P-Glycoprotein (P-gp) and Human Carbonic Anhydrase XII (hCA XII) Inhibitors as Multidrug Resistance (MDR) Reversers in Cancer Cells” (Journal of Medicinal Chemistry, 2022).
